Data: patent publication US4500525A, “Pharmacologically active pyrazolo/4,3-c/pyridines” (Gruppo Lepetit S.p.A., priority 1982, dated 1985)
Structures can show the parent of a compound that is named as a salt.

Experiments:
[1] = tested on: renal hypertensive dogs; assay: lowering of blood pressure in renal hypertensive dogs; type: in vivo, dog
Method: In renal hypertensive dogs, preparated essentially according to H. Golblatt, J. Linch. and R. F. Manzal, J. Exp. Med. 59, 347 (1934), some of the compounds of the invention show a considerable lowering of the systolic blood pressure without affecting the heart rate to a great extent.
The test compounds are administered orally and the pressure is measured according to the method of H. Friebel, E. Vrenden, Arch. Exp. Phat. Pharmak. 232, 419 ([…]).
In the above test system the compound of example 100 determines a 20% drop of the blood pressure when administered 0.5 mg/kg p.o., the compound of example 106 determines a 22% drop when administered 1 mg/kg p.o., the compounds of Examples 134 and 135 determine a drop of 34% and 25%, respectively, when administered 5 mg/kg p.o., and the compound of example 107 determines a 43% drop of the blood pressure when administered 10 mg/kg p.o.

[2] = target: α1 adrenoceptor; assay: displacement of ^3 H-prazosin specifically bound in rat brain homogenate (radioligand binding); settings: ^3 H Prazosin binding, Ki calculated from IC50, read-out: K1 (nM) ^3 H Prazosin
Method: The compounds of the invention were tested […] for their ability to compete with labelled ligands of α1, α2 -adrenergic,and dopaminergic receptors. Said tests were made essentially following:
(b) the method described by P. Greengrass et al., European Journal of Pharmacology, Vol. 55, pp. 323-326, (1979), which uses the specific displacement of ^3 H-prazosin specifically bound in rat brain homogenate, for the identification of substances interacting with the so called "α1 "adrenoceptor;
The above mentioned methods are radioligand binding assays and are based on the knowledge that many natural or synthetic physiologically active substances such as neurotransmitters, hormones, and others, specifically link to cellular receptors, generally of proteic nature. They are generally obtained from a tissue or organ of a suitable test-animal after isolation and homogenization of said tissue or organ.
The homogenate is twice centrifugated to separate and partially purify the receptorial fraction (synaptosomes).
The labelled substances employed are known to specifically bind their receptors, so the drug-receptor dissociation constants obtained for each test compound under standard conditions are a measure of their actual binding affinities. The validation of the above methods in predicting a possible pharmacological activity was carried out comparing the in vitro binding constants of a number of […] agonist or antagonist of the adrenergic or dopaminergic system with their in vivo activities. The α1 -adrenergic activity is essentially correlated with a peripheral vasodilatation. The α2 -adrenergic activity is essentially correlated with a hypotensive action of central origin, and the dopaminergic activity is correlated with a neuroleptic action. IC50 values, defined as the drug concentration that cause 50% inhibition of the specific ^3 H ligant binding, are observed by incubating from 5 to 7 different dilutions of the tested compound in duplicate or triplicate. Ki, inhibition constant, values are calculated from the following formula: [formula] wherein IC50 is defined as above, C is the concentration of the ^3 H ligand, and KD is the dissociation constant of the ^3 H ligand-receptor complex.

[3] = tested on: spontaneously hypertensive rat; assay: lowering of arterial pressure in the spontaneously hypertensive rat; type: in vivo; settings: p.o. 50 mg/kg
Method: Journal, Vol. 27, p. 282, (1963). The arterial pressure was evaluated according to H. Fribel, E. Vredom, described in Arch. Exp. Phat. Pharmak. Vol. 232, p. 416, (1958). […] This 15% threshold is generally considered predictive of significant antihypertensive activity.

[4] = positive inotropic activity in conventional in vitro tests (isolated preparation)
[5] = tested on: mice; assay: pole climbing avoidance test; type: in vivo; settings: i.p., treated/untreated mice
Description: The neuroleptic activity of the compounds of the invention was investigated by means of the "pole climbing avoidance test", as described by L. Cook et al. (Ann. N.Y. Acad. Sci. 66, 740, 1957) and subsequently modified by Maffii et al. (J. Pharm. Pharmac., 11, 129, 1959). As a representative example, the compound of example 38 scores as follows in the above test:
The symbols CR, CR2, and UR corresponds to the primary, secondary conditioned response and to the unconditioned response according to the above test.

Fc1ccc(-c2nn(Cc3ccccc3)c3c2CNCC3)cc1 [Example 100, 3-(4-fluorophenyl)-1-phenylmethyl-4,5,6,7-tetrahydro-1H-pyrazolo/4,3-c/pyridine, hydrochloride]
drop of the blood pressure ([1]; 0.5 mg/kg p.o.): 20%
Ki [2]: 14.7 nM
lowering of the pressure [3]: 30%

Cc1ccc(Cn2nc(-c3ccc(F)cc3)c3c2CCN(C)C3)cc1 [Example 135, 3-(4-fluorophenyl)-1-(4-methylphenylmethyl)-5-methyl-4,5,6,7-tetrahydro-1H-pyrazolo/4,3-c/pyridine, methanesulfonate]
drop of the blood pressure ([1]; 5 mg/kg p.o.): 25%
Ki [2]: 47.2 nM

CCn1nc(-c2cccs2)c2c1CCNC2 [Example 102, 1-ethyl-3-(2-thienyl)-4,5,6,7-tetrahydro-1H-pyrazolo/4,3-c/pyridine, methanesulfonate]
positive inotropic activity [4]: good positive inotropic activity
antagonism of the inotropic activity by propanolol (β-adrenergic effects) ([4]; propanolol): not antagonized by propanolol

Cc1ccc(Cn2nc(-c3ccc(F)cc3)c3c2CCNC3)cc1 [Example 107, 3-(4-fluorophenyl)-1-(4-methylphenylmethyl)-4,5,6,7-tetrahydro-1H-pyrazolo/4,3-c/pyridine, methanesulfonate]
drop of the blood pressure ([1]; 10 mg/kg p.o.): 43%
Ki [2]: 23.6 nM

Fc1ccc(Cn2nc(-c3ccc(F)cc3)c3c2CCNC3)cc1 [Example 106]
drop of the blood pressure ([1]; 1 mg/kg p.o.): 22%
Ki [2]: 0.331 nM

CN1CCc2[nH]nc(-c3ccc(F)cc3)c2C1 [Example 38, 3-(4-fluorophenyl)-5-methyl-4,5,6,7-tetrahydro-1H-pyrazolo/4,3-c/pyridine]
CR2 (secondary conditioned response) ([5]; 10 mg/kg): 9/10
CR (primary conditioned response) ([5]; 10 mg/kg): 3/10
UR (unconditioned response) ([5]; 10 mg/kg): 0/10
CR2 (secondary conditioned response) ([5]; 25 mg/kg): 10/10
CR (primary conditioned response) ([5]; 25 mg/kg): 8/10
UR (unconditioned response) ([5]; 25 mg/kg): 0/10

CN1CCc2c(c(-c3ccc(F)cc3)nn2Cc2ccc(F)cc2)C1 [Example 134, 3-(4-fluorophenyl)-1-(4-fluorophenylmethyl)-5-methyl-4,5,6,7-tetrahydro-1H-pyrazolo/4,3-c/pyridine, hydrochloride]
drop of the blood pressure ([1]; 5 mg/kg p.o.): 34%
Ki [2]: 6.35 nM
